Data: patent publication US10294202B2, “Pyrrolidinones as herbicides” (FMC Corporation, priority 2013, dated 2019)

Legend:
velvetleaf = test: Test E preemergence herbicide test; assay type: in vivo, Abutilon theophrasti; set-up: key: 0 = no effect, 100 = complete control
Description: (§1) Seeds of plant species selected from corn (Zea mays), soybean (Glycine max), velvetleaf (Abutilon theophrasti), lambsquarters (Chenopodium album), wild poinsettia (Euphorbia heterophylla), pigweed, palmer (palmer pigweed, Amaranthus palmeri), waterhemp (common waterhemp, Amaranthus rudis), surinam grass (Brachiaria decumbens), crabgrass, large (large crabgrass, Digitaria sanguinalis), crabgrass, Brazil (Brazilian crabgrass, Digitaria horizontalis), panicum, fall (fall panicum, Panicum dichotomiflorum), foxtail, giant (giant foxtail, Setaria faberii), foxtail, green (green foxtail, Setaria viridis), goosegrass (Eleusine indica), johnsongrass (Sorghum halepense), ragweed (common ragweed, Ambrosia elatior), barnyardgrass (Echinochloa crus-galli), sandbur (southern sandbur, Cenchrus echinatus), arrowleaf […] rhombifolia), ryegrass, Italian (Italian ryegrass, Lolium multiflorum), dayflower, VA (Virginia dayflower, Commelina virginica), field bindweed (Convolvulus arvensis), morningglory (Ipomoea coccinea), nightshade (eastern black nightshade, Solanum ptycanthum), kochia (Kochia scoparia), nutsedge, yellow (yellow nutsedge, Cyperus esculentus), cocklebur (common cocklebur, Xanthium strumarium), smartweed (ladysthumb smartweed, Polygonum Persicaria) and beggarticks (hairy beggarticks, Bidens pilosa), were planted into a silt loam soil and treated preemergence with test chemicals formulated in a non-phytotoxic solvent mixture which included a surfactant. Treated plants and controls were maintained in a greenhouse for 21 days, after which time all species were compared to controls and visually evaluated. Plant response ratings, summarized in Table E, are based on a scale of 0 to 100 where 0 is no effect and 100 is complete control. A dash (-) response means no test result.

arrowleaf sida = test: Test E preemergence herbicide test; assay type: in vivo, Sida rhombifolia; set-up: key: 0 = no effect, 100 = complete control
Description: as §1

nightshade = test: Test E preemergence herbicide test; assay type: in vivo, Solanum ptycanthum; set-up: key: 0 = no effect, 100 = complete control
Description: as §1

kochia = test: Test E preemergence herbicide test; assay type: in vivo, Kochia scoparia; set-up: key: 0 = no effect, 100 = complete control
Description: as §1

field poppy = test: Test D pre-/postemergence herbicide test; assay type: in vivo, Papaver rhoeas; details: Preemergence; for Plant response rating, Field Poppy: scale 0 to 100 (0 no effect, 100 complete control)
Procedure, shortened: (§2)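 Plants were maintained 7 to 21 days in a controlled environment after treatment and then scored visually against controls (0 no effect, 100 complete control). Seeds in silt loam received preemergence sprays, and 1- to 4-leaf plants received postemergence sprays, both formulated in non-phytotoxic solvent with surfactant.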

lambsquarters = test: Test D pre-/postemergence herbicide test; assay type: in vivo, Chenopodium album; details: Preemergence; for Plant response rating, Lambsquarters: scale 0 to 100 (0 no effect, 100 complete control)
Procedure, shortened: as §2

radish, wild = test: Test D pre-/postemergence herbicide test; assay type: in vivo, Raphanus raphanistrum; details: Preemergence, scale 0 to 100 (0 no effect, 100 complete control)
Procedure, shortened: as §2

## O=C1NCC(c2ccc(F)cc2)C1C(=O)Nc1ccccc1F (racemic) [Compound 16]
velvetleaf; 16 g ai/ha
  Plant response rating, Velvetleaf: 0
velvetleaf; 31 g ai/ha
  Plant response rating, Velvetleaf: 0
velvetleaf; 62 g ai/ha
  Plant response rating, Velvetleaf: 0
velvetleaf; 125 g ai/ha
  Plant response rating, Velvetleaf: 0
velvetleaf; 250 g ai/ha
  Plant response rating, Velvetleaf: 0
Arrowleaf sida; 16 g ai/ha
  Plant response rating, Arrowleaf Sida: 0
Arrowleaf sida; 31 g ai/ha
  Plant response rating, Arrowleaf Sida: 0
Arrowleaf sida; 62 g ai/ha
  Plant response rating, Arrowleaf Sida: 0
Arrowleaf sida; 125 g ai/ha
  Plant response rating, Arrowleaf Sida: 0
Arrowleaf sida; 250 g ai/ha
  Plant response rating, Arrowleaf Sida: 0
nightshade; 16 g ai/ha
  Plant response rating, Nightshade: 0
nightshade; 31 g ai/ha
  Plant response rating, Nightshade: 0
nightshade; 62 g ai/ha
  Plant response rating, Nightshade: 0
nightshade; 125 g ai/ha
  Plant response rating, Nightshade: 0
nightshade; 250 g ai/ha
  Plant response rating, Nightshade: 0
kochia; 31 g ai/ha
  Plant response rating, Kochia: 0
kochia; 125 g ai/ha
  Plant response rating, Kochia: 0
kochia; 250 g ai/ha
  Plant response rating, Kochia: 0

## O=C1NCC(c2cccc(Br)c2)C1C(=O)Nc1ccccc1F (stereo not shown) [Compound 66]
velvetleaf; 16 g ai/ha
  Plant response rating, Velvetleaf: 0
velvetleaf; 31 g ai/ha
  Plant response rating, Velvetleaf: 0
velvetleaf; 62 g ai/ha
  Plant response rating, Velvetleaf: 0
velvetleaf; 125 g ai/ha
  Plant response rating, Velvetleaf: 0
velvetleaf; 250 g ai/ha
  Plant response rating, Velvetleaf: 0
Arrowleaf sida; 16 g ai/ha
  Plant response rating, Arrowleaf Sida: 0
Arrowleaf sida; 31 g ai/ha
  Plant response rating, Arrowleaf Sida: 0
Arrowleaf sida; 62 g ai/ha
  Plant response rating, Arrowleaf Sida: 0
Arrowleaf sida; 125 g ai/ha
  Plant response rating, Arrowleaf Sida: 0
Arrowleaf sida; 250 g ai/ha
  Plant response rating, Arrowleaf Sida: 0
nightshade; 16 g ai/ha
  Plant response rating, Nightshade: 0
nightshade; 31 g ai/ha
  Plant response rating, Nightshade: 0
nightshade; 62 g ai/ha
  Plant response rating, Nightshade: 0
nightshade; 250 g ai/ha
  Plant response rating, Nightshade: 0
kochia; 16 g ai/ha
  Plant response rating, Kochia: 0
kochia; 31 g ai/ha
  Plant response rating, Kochia: 0
kochia; 62 g ai/ha
  Plant response rating, Kochia: 0
kochia; 125 g ai/ha
  Plant response rating, Kochia: 0
kochia; 250 g ai/ha
  Plant response rating, Kochia: 0

## O=C1NCC(c2ccc(C(F)(F)F)cc2)C1C(=O)Nc1ccc(F)c(F)c1F (stereo not shown) [Compound 232]
velvetleaf; 31 g ai/ha
  Plant response rating, Velvetleaf: 0
velvetleaf; 62 g ai/ha
  Plant response rating, Velvetleaf: 0
velvetleaf; 125 g ai/ha
  Plant response rating, Velvetleaf: 20
velvetleaf; 250 g ai/ha
  Plant response rating, Velvetleaf: 80
Arrowleaf sida; 31 g ai/ha
  Plant response rating, Arrowleaf Sida: 0
Arrowleaf sida; 62 g ai/ha
  Plant response rating, Arrowleaf Sida: 20
Arrowleaf sida; 125 g ai/ha
  Plant response rating, Arrowleaf Sida: 65
Arrowleaf sida; 250 g ai/ha
  Plant response rating, Arrowleaf Sida: 90
nightshade; 31 g ai/ha
  Plant response rating, Nightshade: 25
nightshade; 62 g ai/ha
  Plant response rating, Nightshade: 75
nightshade; 125 g ai/ha
  Plant response rating, Nightshade: 98
kochia; 31 g ai/ha
  Plant response rating, Kochia: 90
kochia; 62 g ai/ha
  Plant response rating, Kochia: 95
kochia; 125 g ai/ha
  Plant response rating, Kochia: 98
kochia; 250 g ai/ha
  Plant response rating, Kochia: 98

## O=C1NCC(c2cccc(C(F)(F)F)c2)C1C(=O)Nc1cccc(F)c1F (stereo not shown) [Compound 241]
Field poppy; 31 g ai/ha
  Plant response rating, Field Poppy: 90
Field poppy; 62 g ai/ha
  Plant response rating, Field Poppy: 95
Field poppy; 125 g ai/ha
  Plant response rating, Field Poppy: 95
Field poppy; 250 g ai/ha, Field Poppy, scale 0 to 100
  Plant response rating: 100
lambsquarters; 31 g ai/ha
  Plant response rating, Lambsquarters: 85
lambsquarters; 62 g ai/ha
  Plant response rating, Lambsquarters: 90
lambsquarters; 125 g ai/ha
  Plant response rating, Lambsquarters: 90
lambsquarters; 250 g ai/ha, Lambsquarters, scale 0 to 100
  Plant response rating: 90
radish, wild; 31 g ai/ha
  Plant response rating, Radish, Wild: 0
radish, wild; 62 g ai/ha
  Plant response rating, Radish, Wild: 0
radish, wild; 125 g ai/ha
  Plant response rating, Radish, Wild: 0
radish, wild; 250 g ai/ha
  Plant response rating, Radish, Wild: 0
